# From article PMC10831071, “Reaction hijacking inhibition of Plasmodium falciparum asparagine tRNA synthetase” (Nature Communications, 2024)
# Several values for one entry are separate records, joined by “and”; a condition that tells them apart may be missing. Identical values can stand only once. Like-named read-outs stand apart in the source and are kept apart here.
# Columns and labels:
# [1] = system: PfCA cKD P. falciparum line; assay: microbe, parasite or virus in culture; assay type: cell-based, Plasmodium falciparum; details: for Growth: PfCA K/D, no aTc
# From the text: (§1) Conditional knockdown (cKD) P. falciparum lines were generated for the cytosolic AsnRS (PF3D7_0211800), cytosolic AlaRS (PF3D7_1367700), cytosolic GlyRS (GlyRS; PF3D7_1420400), PfNT4 (PF3D7_0103200), P. falciparum glutamate dehydrogenase 3 (GDH3; PF3D7_0802000), and P. falciparum carbonic anhydrase (CA, PF3D7_1140000) by fusing the coding sequences and non-coding RNA aptamer sequences in the 3’-UTR, permitting translation regulation using the TetR-DOZI system[59],[60]. Gene editing was achieved by CRISPR/SpCas9 using the linear pSN054 vector that contains cloning sites for the left homology region (LHR) and the right homology region (RHR) as well a target-specific guide RNA under control of the T7 promoter. Cloning into the pSN054 donor vector was carried out following described procedures[59],[60]. The vector includes V5-2xHA epitope tags, a 10x tandem array of TetR aptamers upstream of an Hsp86 3’UTR, and a multicistronic cassette for expression of TetR-DOZI (translation regulation), blasticidin S-deaminase (selection marker) and a Renilla luciferase (RLuc) reporter. All primer and synthetic fragment sequences that were generated using the BioXP™ system and IDT gBlocks™ are included in Supplementary Table 9. The final constructs were sequence-verified and further confirmed by restriction digests.
# (§2) Transfection into Cas9- and T7 RNA polymerase-expressing NF54 parasites was carried out by pre-loading red blood cells (RBCs) with the donor vector[61]. […] Cultures were monitored by Giemsa smears and RLuc measurements.
# (§3) DMSO- and dihydroartemisinin-treatment (0.5 µM) served as reference controls.
# [2] = system: PfGDH3 cKD P. falciparum line; assay: microbe, parasite or virus in culture; assay type: cell-based, Plasmodium falciparum; details: for Growth: PfGDH K/D
# From the text: as §1, §2, §3
# [3] = system: PfGlyRS cKD P. falciparum line; assay: microbe, parasite or virus in culture; assay type: cell-based, Plasmodium falciparum; details: for Growth: PfGlyRS K/D; for IC50: PfGlyRS line, individual repeats
# From the text: as §1, §2, §3
# [4] = system: PfNT4 cKD P. falciparum line; assay: microbe, parasite or virus in culture; assay type: cell-based, Plasmodium falciparum; details: for growth after 72 h exposure, normalised to no drug: PfNT4 K/D, replicates; for IC50: PfNT4 line, individual repeats
# From the text: as §1, §2, §3
# [5] = Solid state stability under ambient conditions; assay type: physicochemical
# [6] = Plasmodium falciparum, 1 nM, […] aTc or no aTc
# [7] = Plasmodium falciparum, 500 nM aTc
smiles,measurement,setting,value
Nc1ncnc2cc(-c3cccc(S(N)(=O)=O)c3)sc12 [OSM-S-106],Growth,[1]; 200 nM OSM-S-106,6.983 and 9.353 and 10.7306
same,Growth,[1]; 400 nM OSM-S-106,0.8215 and 0.8297 and 1.231
same,IC50,"[1]; PfCA line, 500 nM aTc, individual repeats",0.0313 µM and 0.0376 µM
same,IC50,"[1]; Plasmodium falciparum, PfCA line, 1 nM, […] aTc or no aTc, individual repeats",0.023 µM
same,IC50,"[1]; Plasmodium falciparum, PfCA line, 500 nM aTc, individual repeats",0.0292 µM
same,IC50,"[1]; Plasmodium falciparum, read-out: Mean IC50 with 500 nM aTc, PfCA line, 500 nM aTc",0.033 µM
same,IC50,"[1]; Plasmodium falciparum, read-out: Mean IC50 with low (1 or […])/ no aTc, PfCA knockdown, no aTc",0.026 µM
same,Growth,"[2]; 3.125 nM OSM-S-106, 500 nM aTc",94.0541 and 124.457 and 123.311 and 110.909
same,Growth,"[2]; 3.125 nM OSM-S-106, no aTc",87.3995 and 105.933 and 109.078 and 106.271
same,Growth,"[2]; 6.25 nM OSM-S-106, 500 nM aTc",100.123 and 114.751 and 110.911 and 107.384
same,Growth,"[2]; 6.25 nM OSM-S-106, no aTc",83.7383 and 126.64 and 124.278 and 107.945
same,Growth,"[2]; 12.5 nM OSM-S-106, 500 nM aTc",87.2036 and 124.904 and 116.677 and 110.631
same,Growth,"[2]; 12.5 nM OSM-S-106, no aTc",66.2785 and 97.9464 and 116.025 and 105.41
same,Growth,"[2]; 200 nM OSM-S-106, 500 nM aTc",11.4175 and 15.1341 and 15.4371 and 10.7452
same,Growth,"[2]; 200 nM OSM-S-106, no aTc",9.827 and 15.4022 and 15.1307 and 8.291
same,IC50,"[2]; PfGDH3 line, 500 nM aTc, individual repeats",0.0228 µM and 0.0695 µM and 0.0365 µM and 0.0302 µM
same,IC50,"[2]; Plasmodium falciparum, read-out: Mean IC50 with 500 nM aTc, PfGDH3 line, 500 nM aTc",0.04 µM
same,IC50,"[2]; Plasmodium falciparum, read-out: Mean IC50 with low (1 or […])/ no aTc, PfGDH3 knockdown, no aTc",0.046 µM
same,Growth,"[3]; 3.125 nM OSM-S-106, 500 nM aTc",112.465 and 111.772 and 85.4538
same,Growth,"[3]; 6.25 nM OSM-S-106, 500 nM aTc",122.27 and 121.35 and 91.2762
same,Growth,"[3]; 12.5 nM OSM-S-106, 500 nM aTc",106.05 and 112.162 and 76.632
same,Growth,"[3]; 100 nM OSM-S-106, 500 nM aTc",9.878 and 6.142 and 8.685
same,Growth,"[3]; 200 nM OSM-S-106, 500 nM aTc",7.891 and 8.53 and 4.96
same,IC50,"[3]; 1 nM, […] aTc or no aTc",0.0407 µM
same,IC50,[3]; 500 nM aTc,0.0372 µM
same,IC50,[3]; [6],0.0395 µM
same,IC50,[3]; [7],0.0393 µM
same,"growth after 72 h exposure, normalised to no drug","[4]; 500 nM aTc, 0.488281 nM",115.319 and 105.291 and 111.528
same,"growth after 72 h exposure, normalised to no drug","[4]; 500 nM aTc, 0.976562 nM",113.41 and 102.567 and 108.441
same,"growth after 72 h exposure, normalised to no drug","[4]; 500 nM aTc, 1.95312 nM",108.529 and 100.357 and 100.986
same,"growth after 72 h exposure, normalised to no drug","[4]; 500 nM aTc, 3.90625 nM",110.366 and 98.6162 and 100.564
same,"growth after 72 h exposure, normalised to no drug","[4]; 500 nM aTc, 7.8125 nM",101.389 and 100.305 and 97.246
same,"growth after 72 h exposure, normalised to no drug","[4]; 500 nM aTc, 31.25 nM",11.2119 and 13.2391 and 14.7628
same,"growth after 72 h exposure, normalised to no drug","[4]; 500 nM aTc, 62.5 nM",1.785 and 2.763 and 1.994
same,"growth after 72 h exposure, normalised to no drug","[4]; 500 nM aTc, 125 nM",0.2373 and 0.4204 and 0.2459
same,"growth after 72 h exposure, normalised to no drug","[4]; 500 nM aTc, 250 nM",0.2337 and 0.2689 and 0.2037
same,"growth after 72 h exposure, normalised to no drug","[4]; no aTc, 0.488281 nM",115.9 and 108.506 and 115.265
same,"growth after 72 h exposure, normalised to no drug","[4]; no aTc, 0.976562 nM",107.637 and 104.459 and 111.884
same,"growth after 72 h exposure, normalised to no drug","[4]; no aTc, 1.95312 nM",103.621 and 102.992 and 106.407
same,"growth after 72 h exposure, normalised to no drug","[4]; no aTc, 3.90625 nM",93.8123 and 99.6909 and 104.029
same,"growth after 72 h exposure, normalised to no drug","[4]; no aTc, 7.8125 nM",30.4373 and 37.6726 and 51.4607
same,"growth after 72 h exposure, normalised to no drug","[4]; no aTc, 31.25 nM",0.5987 and 0.9711 and 0.5614
same,"growth after 72 h exposure, normalised to no drug","[4]; no aTc, 62.5 nM",0.1353 and 0.2821 and 0.05072
same,"growth after 72 h exposure, normalised to no drug","[4]; no aTc, 125 nM",0.1322 and 0.3476 and 0.0472
same,"growth after 72 h exposure, normalised to no drug","[4]; no aTc, 250 nM",0.1415 and 0.3214 and 0.1916
same,IC50,[4]; 500 nM aTc,0.0205 µM and 0.0214 µM
same,IC50,[4]; [6],0.00609 µM
same,IC50,[4]; [7],0.0199 µM
same,stability in the solid state,[5],stable in the solid state
